From patent US12410124B2 (priority 2019, dated 2025)
Read-outs that look alike come from different tables or passages of the source.

Experiments:
primary glial cells = assay: Inhibition of the NO release of primary glial cells induced by LPS; format: cell-based, rat; conditions: Rattus norvegicus, Glial cell, read-out: NO inhibition (%)
Source text: Lipopolysaccharide (LPS) is a main component of the cell wall of Gram-negative bacteria. It is a potent inflammatory factor that can directly activate gliocytes, and the activated gliocytes secrete a large amount of inflammation mediators such as tumor necrosis factor, interleukin, and nitric oxide, thus causing inflammatory reactions and oxidative stress reactions and eventually leading to neuronal denaturation and death. In recent years, the targeted injection of LPS into rat substantia nigra or striatum to induce neuroinflammation can successfully establish PD models, which can simulate most of the clinical manifestations and pathological features of PD, and are used for the study on the neuroinflammation mechanism associated with PD. LPS-induced primary glial cell PD inflammation model is suitable for the preliminary anti-neuroinflammation screening for neuroprotective agents. LPS is used to directly activate primary glial cells to simulate the pathogenesis mechanism of neuroinflammation, and the inhibitory activity of the target compounds on the inflammatory response of primary glial cells can be investigated.
The materials were taken from the brain tissue of fetal rat, for primary glial cell culture. At 7 to 10 days of the culture, LPS was added for the activation of nitric oxide (NO) release in glial cells. When a target compound was added, the reduction value for NO content in the cell culture medium was measured, to evaluate the anti-neuroinflammation activity of the compound. The experiment included blank control group, LPS model group, positive control group (caffeic acid phenethyl ester, CAPE), prototype control group (styryl sulfone compounds 3B, 3C, 3D, and 3G, the structures of which compounds are shown as above), and target compound group.

midbrain TH = assay: Midbrain TH expression in MPTP Parkinson's disease model mouse (western-blotting); format: in vivo; conditions: midbrain total protein, GAPDH internal reference, gavage 21 days after MPTP modeling
Experimental: (§1) Neurotoxins can be used to establish PD animal models. Currently, 1-methyl-4-phenyl-1,2,3,6-tetrahydropyridine (MPTP) is the sole synthetic toxin which is recognized to induce PD symptoms in human and non-human primates and in mice. Using MPTP subacute modeling method, C57BL/6J male mice were intraperitoneally injected with MPTP 30 mg/kg, once a day for 5 consecutive days. The experiment animals were divided into blank control group, MPTP model group, and compound treatment group. For the […] compound treatment group, the compound was administrated by gavage for 21 consecutive days after the completion of modeling; for the MPTP model group, the normal saline was administrated by gavage for 21 consecutive days after the completion of modeling; and for the blank control group, the normal saline was first intraperitoneally injected for 5 days, and then administrated by gavage for 21 days.
The main cause of PD lies in the pathological changes in the substantia nigra-striatum projection system of the brain and the progressive degeneration and loss of dopaminergic neurons. Tyrosine hydroxylase (TH) is the first enzyme in the biosynthesis of catecholamine neurotransmitters, as well as the first rate-limiting enzyme in the dopamine synthesis. It plays an important role in the synthesis and metabolism of the neurotransmitter DA. The TH in PD animal models and patients has a wide range of abnormal changes, from the gene expression to the enzyme protein content and enzyme activity. The detection of the TH expression in the midbrain and substantia nigra of PD model mice can be used to evaluate the neuroprotective activity of the compound.
Half of experiment mice in each group were taken to extract the total midbrain protein, and the change in the midbrain TH was determined by western-blotting using GAPDH as the internal reference. The experiment included blank control group, MPTP model group, positive control group (caffeic acid phenethyl ester, CAPE), prototype control group (styryl sulfone compounds 3B, 3C, 3D, and 3G, whose structures are shown as above), and target compound group.

midbrain CD11b = assay: Midbrain CD11b protein expression in MPTP Parkinson's disease model mouse (western-blotting); format: in vivo; conditions: midbrain, MPTP Parkinson's disease model mouse, western-blotting
Experimental: as §1
(§2) Neuron-glial cell network homeostasis disorder is an important factor for the selective and progressive death of substantia nigra dopaminergic neurons in PD. In the neurotoxic effect of MPTP, the excessive activations of microglial cells and astrocytes produce a variety of inflammatory cytokines and reactive oxygen species (ROS). These inflammatory factors and ROS amplify their respective toxicities and mediate malignant feedback loop, causing a cascade inflammation response and aggravating the pathological process of PD. CD11b and GFAP are the marker proteins for activations of microglial cells and astrocytes, respectively. Therefore, the effect of the target compounds on the activations of the microglial cells and astrocytes in the substantia nigra, hippocampus, and midbrain areas of MPTP-induced PD mice can be investigated, to explore the mechanism of the anti-PD effect of the target compounds by inhibiting the neuroinflammation.
[…] The experiment included blank control group, MPTP model group, positive control group (caffeic acid phenethyl ester, CAPE), prototype control group (styryl sulfone compounds 3B, 3C, 3D), and 3G, whose structures are shown as above), and target compound group.

hippocampus CD11b = assay: Number of hippocampus microglial cells with CD11b positive expression in MPTP Parkinson's disease model mouse (immunohistochemistry); format: in vivo; conditions: hippocampus, MPTP Parkinson's disease model mouse, immunohistochemistry
Experimental: as §1, §2
Half of experiment mice in each group were taken to separate the midbrain after perfusion and fixation. The tissue was trimmed, and the hippocampus area was taken to prepare paraffin sections. The CD11b immunohistochemical staining was performed for the statistics of the change in the number of microglial cells with CD11b positive expression. The experiment included blank control group, MPTP model group, positive control group (caffeic acid phenethyl ester, CAPE), prototype control group (styryl sulfone compounds 3B, 3C, 3D, and 3G, whose structures are shown as above), and target compound group.

substantia nigra GFAP = assay: Number of substantia nigra astrocytes with GFAP positive expression in MPTP Parkinson's disease model mouse (immunohistochemistry); format: in vivo; conditions: substantia nigra, MPTP Parkinson's disease model mouse, immunohistochemistry
Experimental: as §1, §2
Half of experiment mice in each group were taken to separate the midbrain after perfusion and fixation. The tissue was trimmed, and the substantia nigra area was taken to prepare paraffin sections. The GFAP immunohistochemical staining was performed for the statistics of the change in the number of astrocytes with GFAP positive expression. The experiment included blank control group, MPTP model group, positive control group (caffeic acid phenethyl ester, CAPE), prototype control group (styryl sulfone compounds 3B, 3C, 3D, and 3G, whose structures are shown as above), and target compound group.

HO-1 = assay: Midbrain HO-1 expression in MPTP Parkinson's disease model mouse (western blot); format: in vivo; conditions: midbrain, MPTP Parkinson's disease model mouse, western blot
Experimental: as §1
Oxidative stress is an important pathogenic mechanism of PD. Dopaminergic neurons are more sensitive to oxidative stress and are more susceptible to oxidative stress damage. Heme oxygenase (HO-1), a phase II enzyme, is also a well-known antioxidase. It plays an important protective role by catalyzing the conversion of free radicals into non-toxic products and increasing their water solubility to facilitate the elimination of free radicals, and maintain the redox balance in the body. It plays an important role in the process of protecting cells against oxidative stress damage. The activation of p38 protein phosphorylation has a negative regulatory effect on phase II enzymes. […] Using HO-1 as an indicator, the inhibitory effect of the target compounds on MPTP-induced oxidative stress damage in PD mice can be investigated.
HO-1 is expressed in astrocytes, microglial cells, and neurons. The total proteins of the midbrain tissue of mice in each experiment group were extracted, to determine the expression of phase II enzyme HO-1 in the midbrain of mice by western blot using GAPDH as the internal reference. The experiment included blank control group, MPTP model group, positive control group (caffeic acid phenethyl ester, CAPE), prototype control group (styryl sulfone compounds 3B, 3C, 3D, and 3G, whose structures are shown as above), and target compound group.

| SMILES | inhibition at 2 µM (primary glial cells; 2 μM) [%] | inhibition at 5 µM (primary glial cells; 5 μM) [%] | inhibition at 10 µM (primary glial cells; 10 μM) [%] | Expression (TH/GAPDH) (midbrain TH) | Expression (CD11b/GAPDH) (midbrain CD11b) | Positive cell number (microglial cells with CD11b positive expression) (hippocampus CD11b) | Positive cell number (astrocytes with GFAP positive expression) (substantia nigra GFAP) | Expression (HO-1/GAPDH) (HO-1) | inhibition at 2 µM (primary glial cells) [%] | inhibition at 5 µM (primary glial cells) [%] | inhibition at 10 µM (primary glial cells) [%] | inhibition at 20 µM (primary glial cells) [%] |
| --- | --- | --- | --- | --- | --- | --- | --- | --- | --- | --- | --- | --- |
| CCOC(CS(=O)(=O)/C=C/c1ccc(OC(C)=O)c(OC(=O)Nc2ccc(NC)cc2)c1)C(OCC)c1ccc(OCc2ccccc2)c(O)c1 (centres unmarked) [Compound H2-4, (E)-4-{2-[3-(4-benzyloxy-3-hydroxyphenyl)-2,3-diethoxypropyl]sulfonylethenyl}-2-[N-(4-methylaminophenyl)carbamoyloxy]phenyl acetate] | 32.2 ± 4.49 | 50.1 ± 5.37 | 85.4 ± 4.9 | 1.02 ± 0.04 | 0.69 ± 0.04 | 7 ± 1 | 93 ± 6 | 0.95 ± 0.10 | – | – | – | – |
| COCCN(C)C(=O)Oc1cc(/C=C/S(=O)(=O)CCc2cccc(-c3ccc(C)o3)c2)ccc1OC(C)=O [Compound J1-4, (E)-2-[N-(2-methoxyethyl)-N-methylcarbamoyloxy]-4-{2-[3-(5-methylfur-2-yl)phenylethylsulfonyl]ethenyl}phenyl acetate] | – | – | – | 0.89 ± 0.04 | 0.75 ± 0.06 | 10 ± 2 | 77 ± 4 | 1.25 ± 0.06 | 24.8 ± 5.02 | 40.9 ± 3.94 | 69.7 ± 5.85 | – |
| CC(Br)C(Br)COc1cc(/C=C/S(=O)(=O)CCc2ccc(OCC(F)(F)F)cc2)ccc1OC(=O)Nc1ccsc1 (centres unmarked) [Compound K1-3, (E)-2-(2,3-dibromobutoxy)-4-{2-[4-(2,2,2-trifluoroethoxy)phenylethylsulfonyl]ethenyl}phenyl-N-(thien-3-yl)carbamate] | – | 33.3 ± 6.71 | 54.2 ± 4.06 | 0.91 ± 0.04 | 1.01 ± 0.08 | 16 ± 1 | 86 ± 5 | 0.83 ± 0.08 | – | – | – | 81.4 ± 4.29 |
| C=CCOc1ccc(C/C=C/S(=O)(=O)/C=C/c2ccc(OC(C)=O)c(OC(=O)N(CC=C)CC=C)c2)cc1 [Compound K1-4, 4-{(E)-2-[(E)-3-(4-allyloxyphenyl)prop-1-en-1-yl]sulfonylethenyl}-2-(N,N-diallylcarbamoyloxy)phenyl acetate] | 30.2 ± 4.01 | 53.5 ± 5.52 | 77.4 ± 5.09 | 0.74 ± 0.08 | 1.09 ± 0.10 | 13 ± 2 | 112 ± 4 | 1.02 ± 0.09 | – | – | – | – |
| COc1cc(/C=C/S(=O)(=O)Cc2cc(OC)c(OC)c(OC)c2)ccc1OC(=O)N(c1ccccc1)c1ccccc1 [Compound K3-3, (E)-2-methoxy-4-{2-[(3,4,5-trimethoxyphenyl)mesyl]ethenyl}-phenyl-N,N-diphenylcarbamate] | – | 17.6 ± 3.24 | 40.6 ± 3.11 | 1.15 ± 0.05 | 1.15 ± 0.07 | 18 ± 1 | 96 ± 3 | 0.69 ± 0.07 | – | – | – | 72.5 ± 6.08 |
| O=C(NC(=O)C(F)(F)F)Oc1ccc(/C=C/S(=O)(=O)C(F)(F)c2ccc(Oc3ccccn3)cc2)cc1OC(=O)C(F)(F)C(F)(F)F [Compound L1-4, (E)-5-{2-[(4-[pyridin-2-yl-oxy]phenyl)difluoromethylsulfonyl]ethenyl}-2-[N-(2,2,2-trifluoroacetyl)carbamoyloxy]phenyl-2,2,3,3,3-pentafluoropropionate] | 26.7 ± 6.93 | 50.9 ± 3.72 | 72.3 ± 4.8 | 0.79 ± 0.04 | 1.09 ± 0.09 | 15 ± 2 | 98 ± 4 | 1.13 ± 0.12 | – | – | – | – |
| CCN(C)C(=O)Oc1ccc(/C=C/S(=O)(=O)CC(c2ccc(-c3ccc(OC)c(OC)c3)cc2)[N+](=O)[O-])cc1OC(=O)N(C)CC (centres unmarked) [Compound M1-1, (E)-4-{2-[2-(3′,4′-dimethoxy-[1,1′-biphenyl]-4-yl)-2-nitroethylsulfonyl]ethenyl}-1,2-phenylenebis(N-ethyl-N-methylcarbamate)] | – | – | – | 1.35 ± 0.04 | 0.46 ± 0.04 | 5 ± 1 | 59 ± 3 | 1.29 ± 0.07 | 38.3 ± 3.42 | 52.9 ± 5.36 | 82.7 ± 2.47 | – |
